Measured values: US20250268854A1, “2-AMINO-5,5-DIMETHYLHEXANOIC ACID DERIVATIVES AS SORTILIN MODULATORS FOR USE IN THE TREATMENT OF DISEASE OF THE CENTRAL NERVOUS SYSTEM” (c/o Vesper Bio ApS, priority 2021, published 2025)
Structures can show the parent of a compound that is named as a salt.

Target: h-Sortilin (Homo sapiens (Human), UniProt Q99523)
Test: Neurotensin (NTS) scintillation proximity assay (SPA): displacement of [3H]-neurotensin binding
Settings: 150 nM 6his-Sortilin, 5 nM [3H]-Neurotensin; average of at least 2 determinations
Description: The exemplified compounds of the invention were tested in a Neurotensin (NTS) scintillation proximity assay (SPA). NTS, which is a 13 amino acid neuropeptide, is a sortilin ligand. The IC50 is a measure of the amount of the compound required to inhibit the binding of NTS to sortilin by 50%. […] Compound affinity was determined by measuring the displacement of [^3H]-neurotensin binding to h-Sortilin in SPA format. […] IC50 values were calculated by nonlinear regression using the sigmoid concentration-response (variable slope) using CDD Vault software. All values reported are average of at least 2 determinations.

h-Sortilin, sequence (Q99523 78-831): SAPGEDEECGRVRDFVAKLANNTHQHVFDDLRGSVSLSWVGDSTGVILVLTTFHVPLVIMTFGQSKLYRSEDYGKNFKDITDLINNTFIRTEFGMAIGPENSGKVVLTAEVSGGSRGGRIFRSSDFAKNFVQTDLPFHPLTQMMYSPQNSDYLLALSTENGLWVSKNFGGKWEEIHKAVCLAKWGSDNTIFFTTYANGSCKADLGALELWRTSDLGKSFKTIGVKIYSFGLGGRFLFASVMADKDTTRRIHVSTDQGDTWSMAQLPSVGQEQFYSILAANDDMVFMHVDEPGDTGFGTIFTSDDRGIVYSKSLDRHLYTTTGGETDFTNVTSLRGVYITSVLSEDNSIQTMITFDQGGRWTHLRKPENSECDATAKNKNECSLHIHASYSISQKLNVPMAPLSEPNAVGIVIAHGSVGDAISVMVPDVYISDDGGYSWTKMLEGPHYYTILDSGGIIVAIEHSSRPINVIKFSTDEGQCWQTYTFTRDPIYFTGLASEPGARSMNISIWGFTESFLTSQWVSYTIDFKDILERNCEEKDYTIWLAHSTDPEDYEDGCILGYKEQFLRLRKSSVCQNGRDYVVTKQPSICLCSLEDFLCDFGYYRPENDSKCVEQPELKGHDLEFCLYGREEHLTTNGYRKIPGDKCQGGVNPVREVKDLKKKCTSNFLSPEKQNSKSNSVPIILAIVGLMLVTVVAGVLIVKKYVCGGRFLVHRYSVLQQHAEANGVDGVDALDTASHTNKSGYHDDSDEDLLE

| Compound | IC50 [nM] |
| --- | --- |
| Cc1cnccc1CN[C@@H](CCC(C)(C)C)C(=O)O [Example 93] | 1630 |
| CC(C)(C)CC[C@H](NCc1ccccc1C(F)(F)F)C(=O)O [Example 13, (2S)-5,5-dimethyl-2-({[2-(trifluoromethyl)phenyl]methyl}amino)hexanoic acid] | 1020 |
| Cc1ccc(CN[C@@H](CCC(C)(C)C)C(=O)O)cn1 [Example 72] | 1240 |
| Cn1ncc2c(CN[C@@H](CCC(C)(C)C)C(=O)O)cccc21 [Example 61, (2S)-5,5-dimethyl-2-{[(1-methyl-1H-indazol-4-yl)methyl]amino}hexanoic acid] | 2830 |
| CC(C)(C)CC[C@H](NCc1cccnc1)C(=O)O [Example 71, (2S)-5,5-dimethyl-2-{[(pyridin-3-yl)methyl]amino}hexanoic acid] | 1130 |
| CC(C)(C)CC[C@H](NCc1ccccc1-c1ccncc1)C(=O)O [Example 56, (2S)-5,5-dimethyl-2-({[2-(pyridin-4-yl)phenyl]methyl}amino)hexanoic acid] | 1910 |
| CC(C)(C)CC[C@H](NCc1ccccc1F)C(=O)O [Example 11, (2S)-2-{[(2-fluorophenyl)methyl]amino}-5,5-dimethylhexanoic acid] | 1830 |
| CC(C)(C)CC[C@H](NCc1cccc2ncccc12)C(=O)O [Example 48, (2S)-5,5-dimethyl-2-{[(quinolin-5-yl)methyl]amino}hexanoic acid] | 1060 |
| CC(C)(C)CC[C@H](NCc1cccc(-n2ccnc2)c1)C(=O)O [Example 57, (2S)-2-({[3-(1H-imidazol-1-yl)phenyl]methyl}amino)-5,5-dimethylhexanoic acid] | 1290 |
| Cn1ccc2cccc(CN[C@@H](CCC(C)(C)C)C(=O)O)c21 [Example 68] | 1200 |
| COc1ccc(CN[C@@H](CCC(C)(C)C)C(=O)O)c2ccccc12 [Example 79] | 950 |
| CC(C)(C)CC[C@H](NCc1ccc2ccccc2n1)C(=O)O [Example 36, (2S)-5,5-dimethyl-2-{[(quinolin-2-yl)methyl]amino}hexanoic acid] | 1600 |
| Cn1ccc2ccc(CN[C@@H](CCC(C)(C)C)C(=O)O)cc21 [Example 67] | 3310 |
| CC(C)(C)CC[C@H](NCc1cccc(CO)c1)C(=O)O [Example 25, (2S)-2-({[3-(hydroxymethyl)phenyl]methyl}amino)-5,5-dimethylhexanoic acid] | 1380 |
| CC(C)(C)CC[C@H](N[C@@H](c1ccccc1)C(F)F)C(=O)O [Example 17, (2S)-2-{[(1S)-2,2-difluoro-1-phenylethyl]amino}-5,5-dimethylhexanoic acid] | 1610 |
| CC(C)(C)CC[C@H](NCc1cccc2[nH]ncc12)C(=O)O [Example 134, (2S)-2-{[(2H-indazol-4-yl)methyl]amino}-5,5-dimethylhexanoic acid] | 1320 |
| CC(C)(C)CC[C@H](NCc1cccc2cccnc12)C(=O)O [Example 47, (2S)-5,5-dimethyl-2-{[(quinolin-8-yl)methyl]amino}hexanoic acid] | 1950 |
| CC(C)(C)CC[C@H](N[C@H](c1ccccc1)C(F)(F)F)C(=O)O [Example 18, (S)-5,5-dimethyl-2-(((R)-2,2,2-trifluoro-1-phenylethyl)amino)hexanoic acid] | 725 |
| CC(C)(C)CC[C@H](NCc1cccc2ccncc12)C(=O)O [Example 7, (2S)-2-{[(isoquinolin-8-yl)methyl]amino}-5,5-dimethylhexanoic acid] | 950 |
| CC(C)(C)CC[C@H](NCc1ccccc1OC(F)(F)F)C(=O)O [Example 10, (2S)-5,5-dimethyl-2-({[2-(trifluoromethoxy)phenyl]methyl}amino)hexanoic acid] | 975 |
| COc1ccc2cc(CN[C@@H](CCC(C)(C)C)C(=O)O)ccc2c1 [Example 85] | 1050 |
| Cc1cc(CN[C@@H](CCC(C)(C)C)C(=O)O)ccn1 [Example 132] | 880 |
| CC(C)(C)CC[C@H](NCc1cccc2[nH]ccc12)C(=O)O [Example 62, (2S)-2-{[(1H-indol-4-yl)methyl]amino}-5,5-dimethylhexanoic acid] | > 9980 |
| CC(C)(C)CC[C@H](NCc1c(F)cccc1F)C(=O)O [Example 12, (2S)-2-{[(2,6-difluorophenyl)methyl]amino}-5,5-dimethylhexanoic acid] | 2840 |

Continued, values first:

| IC50 [nM] | Compound |
| --- | --- |
| 870 | Cn1ncc2ccc(CN[C@@H](CCC(C)(C)C)C(=O)O)cc21 [Example 54, (2S)-5,5-dimethyl-2-{[(1-methyl-1H-indazol-6-yl)methyl]amino}hexanoic acid] |
| 850 | CC(C)(C)CC[C@H](NCc1ccnc2[nH]ccc12)C(=O)O [Example 44, (2S)-5,5-dimethyl-2-[({1H-pyrrolo[2,3-b]pyridin-4-yl}methyl)amino]hexanoic acid] |
| 840 | CC(C)(C)CC[C@H](NCc1cc(Cl)cc(Cl)c1)C(=O)O [Example 32, (2S)-2-{[(3,5-dichlorophenyl)methyl]amino}-5,5-dimethylhexanoic acid] |
| 810 | CC(C)(C)CC[C@H](NCc1ccncc1)C(=O)O [Example 58, (2S)-5,5-dimethyl-2-{[(pyridin-4-yl)methyl]amino}hexanoic acid] |
| 790 | CC(C)(C)CC[C@H](NCc1ccnc(Cl)c1F)C(=O)O [Example 89, (2S)-2-{[(2-chloro-3-fluoropyridin-4-yl)methyl]amino}-5,5-dimethylhexanoic acid] |
| 790 | CC(C)(C)CC[C@H](NCc1cncc2ccccc12)C(=O)O [Example 80] |
| 710 | COc1ccc(CN[C@@H](CCC(C)(C)C)C(=O)O)cc1F [Example 37, (2S)-2-{[(3-fluoro-4-methoxyphenyl)methyl]amino}-5,5-dimethylhexanoic acid] |
| 660 | Cc1cc2cccc(CN[C@@H](CCC(C)(C)C)C(=O)O)c2cn1 [Example 4, (2S)-5,5-dimethyl-2-{[(3-methylisoquinolin-8-yl)methyl]amino}hexanoic acid] |
| 610 | C[C@@H](N[C@@H](CCC(C)(C)C)C(=O)O)c1ccccc1 [Example 14, (S)-5,5-dimethyl-2-(((R)-1-phenylethyl)amino)hexanoic acid hydrochloride] |
| 600 | CC(C)(C)CC[C@H](NCc1cncc(Br)c1)C(=O)O [Example 77, (2S)-2-{[(5-bromopyridin-3-yl)methyl]amino}-5,5-dimethylhexanoic acid] |
| 590 | CC(C)(C)CC[C@H](NCc1ccc2ncsc2c1)C(=O)O [Example 53, (2S)-2-{[(1,3-benzothiazol-6-yl)methyl]amino}-5,5-dimethylhexanoic acid] |
| 590 | Cn1ccc2cc(CN[C@@H](CCC(C)(C)C)C(=O)O)cnc21 [Example 106, (2S)-5,5-dimethyl-2-[({1-methyl-1H-pyrrolo[2,3-b]pyridin-5-yl}methyl)amino]hexanoic acid] |
| 570 | CC(=O)c1cccc(CN[C@@H](CCC(C)(C)C)C(=O)O)c1 [Example 139, (2S)-2-{[(3-acetylphenyl)methyl]amino}-5,5-dimethylhexanoic acid] |
| 565 | CC(C)(C)CC[C@H](N[C@H](c1ccccc1)C(F)F)C(=O)O [Example 19, (2S)-2-{[(1R)-2,2-difluoro-1-phenylethyl]amino}-5,5-dimethylhexanoic acid] |
| 530 | COc1cc(CN[C@@H](CCC(C)(C)C)C(=O)O)ccn1 [Example 87] |
| 470 | CC(C)(C)CC[C@H](NCc1cnc2[nH]ccc2c1)C(=O)O [Example 43, (2S)-5,5-dimethyl-2-[({1H-pyrrolo[2,3-b]pyridin-5-yl}methyl)amino]hexanoic acid] |
| 460 | Cn1cnc2cc(CN[C@@H](CCC(C)(C)C)C(=O)O)ccc21 [Example 110, (2S)-5,5-dimethyl-2-{[(1-methyl-1H-1,3-benzodiazol-5-yl)methyl]amino}hexanoic acid] |
| 430 | CC(C)(C)CC[C@H](NCc1ccc2occc2c1)C(=O)O [Example 117, (2S)-2-{[(1-benzofuran-5-yl)methyl]amino}-5,5-dimethylhexanoic acid] |
| 420 | CCn1ccc2c(CN[C@@H](CCC(C)(C)C)C(=O)O)cccc21 [Example 135, (2S)-2-{[(1-ethyl-1H-indol-4-yl)methyl]amino}-5,5-dimethylhexanoic acid] |
| 400 | CC(C)(C)CC[C@H](NCc1ccc2nccnc2c1)C(=O)O [Example 42, (2S)-5,5-dimethyl-2-{[(quinoxalin-6-yl)methyl]amino}hexanoic acid] |
| 370 | COc1ccc([C@H](C)N[C@@H](CCC(C)(C)C)C(=O)O)cc1OC [Example 108, (S)-2-(((S)-1-(3,4-dimethoxyphenyl)ethyl)amino)-5,5-dimethylhexanoic acid] |
| 320 | CC(C)(C)CC[C@H](NCc1ccc2scnc2c1)C(=O)O [Example 51, (2S)-2-{[(1,3-benzothiazol-5-yl)methyl]amino}-5,5-dimethylhexanoic acid] |
| 270 | CC(C)(C)CC[C@H](NC(c1ccccc1)c1ccccc1)C(=O)O [Example 8, (S)-2-(benzhydrylamino)-5,5-dimethylhexanoic acid hydrochloride] |
| 75 | Cc1cc(=O)oc2c(CN[C@@H](CCC(C)(C)C)C(=O)O)c(O)ccc12 [Example 1, (S)-2-(((7-hydroxy-4-methyl-2-oxo-2H-chromen-8-yl)methyl)amino)-5,5-dimethylhexanoic acid] |

Same assay, conditions: 150 nM 6his-Sortilin, 5 nM [3H]-Neurotensin; average of at least 2 determinations; HCl

| Compound | IC50 [nM] |
| --- | --- |
| CC(N[C@@H](CCC(C)(C)C)C(=O)O)c1cncnc1 (stereo partly drawn) [Example 143, (2S)-5,5-dimethyl-2-((1-(pyrimidin-5-yl)ethyl)amino)hexanoic acid, HCl] | 890 |
